Laboratory results taken from patent publication US20090318424A1, “NOVEL COMPOUNDS” (priority 2006, published 2009).
Entries after “also recorded” stand apart in the source; their conditions may differ.

Tested on: influx of neutrophils to the lung in LPS-challenged rats
Assay: Rat LPS neutrophilia model
Assay type: in vivo
Conditions: LPS aerosol 100 ug/ml 15 min, lavage 4 hours later; in at least one of the range of conditions tested
Experimental: The effect of compounds on the influx of neutrophils to the lung in LPS-challenged rats is evaluated as follows. The test compound is suspended in one of the following solutions: 0.5% tween 80/PBS, 0.5% tween 80/saline, 10% EtOH/saline (with pH adjusted to 2.0, or 8.0 with HCl, or unadjusted), Saline @ pH 2.0, 6.5 or 8.0, 0.5% Tragacanth, 1% DMSO/20% Encapsin/Saline, or acidified 5% Tragacanth. The suspension process may be aided by the use of a glass homogenizer. For intratracheal administration, the animals are anesthetized with inhaled isoflurane and placed in a supine position, the trachea is intubated with a steel gavage needle (1.5 inch, 22 gauge, small ball) or a Penn-Century Microsprayer Aerosolizer (model IA-IB) and 200 ul of dosing solution is delivered. The animals are visually monitored during the recovery process, which typically occurs within two minutes.
Rats treated with compound or vehicle (15 min-24 hours pretreatment) are exposed to an LPS aerosol (100 ug/ml) for 15 min. Four hours later the rats are euthanized with pentobarbital (100 mg/kg, i.p.) and the airways are lavaged with 5 washes of 5 ml of phosphate buffered saline. The harvested cells are stained (Diffquick) and counted to determine total and differential cell data. In a typical study, macrophages represent 40-70% of the total cells, and polymorphonuclear cells 30-60% of the total cells. Inhibition of neutrophil levels relative to no compound controls is calculated based on the differential counts.
The assay has varying conditions, such as concentration, pretreat time, form of the compound (crystalline, amorphous, salts, micronised), and a wet or dry application of the compound. The data is obtained as % inhibition using a particular concentration and pretreat time.

Q: `CN(C)CCNc1nc(-c2cccc(C(=O)Nc3ccc(F)cc3)c2)c2c(n1)N(c1c(F)cccc1F)C(=O)NC2` [Example 93, 3-(8-(2,6-difluorophenyl)-2-{[2-(dimethylamino)ethyl]amino}-7-oxo-5,6,7,8-tetrahydropyrimido[4,5-d]pyrimidin-4-yl)-N-(4-fluorophenyl)benzamide] was tested. Which inhibition of neutrophilia did it give?
A: statistically nonsignificant inhibition

Q: `Cc1ccc(C(=O)Nc2ccc(F)cc2)cc1-c1nc(NC2CCN(C)CC2)nc2c1CNC(=O)N2c1c(F)cccc1F` [Example 39, 3-{8-(2,6-difluorophenyl)-2-[(1-methyl-4-piperidinyl)amino]-7-oxo-5,6,7,8-tetrahydropyrimido[4,5-d]pyrimidin-4-yl}-N-(4-fluorophenyl)-4-methylbenzamide] was tested. Which inhibition of neutrophilia did it give?
A: statistically nonsignificant inhibition

Q: Which inhibition of neutrophilia does the source give for `CN(C)CCNc1nc(-c2cccc(C(=O)Nc3nccs3)c2)c2c(n1)N(c1c(F)cccc1F)C(=O)NC2` [Example 92, 3-(8-(2,6-difluorophenyl)-2-{[2-(dimethylamino)ethyl]amino}-7-oxo-5,6,7,8-tetrahydropyrimido[4,5-d]pyrimidin-4-yl)-N-1,3-thiazol-2-ylbenzamide] here?
A: statistically significant inhibition

Q: Which inhibition of neutrophilia does the source give for `Cc1ccc(C(=O)NC(C)C)cc1-c1nc(N(C)CCN(C)C)nc2c1CNC(=O)N2c1c(F)cccc1F` [Example 36, 3-{8-(2,6-difluorophenyl)-2-[[2-(dimethylamino)ethyl](methyl)amino]-7-oxo-5,6,7,8-tetrahydropyrimido[4,5-d]pyrimidin-4-yl}-4-methyl-N-(1-methylethyl)benzamide] here?
A: statistically significant inhibition

Q: With `Cc1ccc(C(=O)Nc2nccs2)cc1-c1nc(NC[C@H](C)O)nc2c1CNC(=O)N2c1c(F)cccc1F` [Example 134, 3-(8-(2,6-difluorophenyl)-2-{[(2S)-2-hydroxypropyl]amino}-7-oxo-5,6,7,8-tetrahydropyrimido[4,5-d]pyrimidin-4-yl)-4-methyl-N-1,3-thiazol-2-ylbenzamide] as the compound, how does the inhibition of neutrophilia read?
A: statistically nonsignificant inhibition

Q: With `Cc1ccc(C(=O)NC(C)C)cc1-c1nc(N2CCC(N3CCCC3)CC2)nc2c1CNC(=O)N2c1c(F)cccc1F` [Example 60, 3-{8-(2,6-difluorophenyl)-7-oxo-2-[4-(1-pyrrolidinyl)-1-piperidinyl]-5,6,7,8-tetrahydropyrimido[4,5-d]pyrimidin-4-yl}-4-methyl-N-(1-methylethyl)benzamide] as the compound, how does the inhibition of neutrophilia read?
A: statistically nonsignificant inhibition; also recorded: inactive

Q: For `Cc1ccc(C(=O)Nc2ccc(F)cc2)cc1-c1nc(N2CCC(N3CCCC3)CC2)nc2c1CNC(=O)N2c1c(F)cccc1F` [86(c), 3-{8-(2,6-difluorophenyl)-7-oxo-2-[4-(1-pyrrolidinyl)-1-piperidinyl]-5,6,7,8-tetrahydropyrimido[4,5-d]pyrimidin-4-yl}-N-(4-fluorophenyl)-4-methylbenzamide], which inhibition of neutrophilia is on record?
A: statistically nonsignificant inhibition

Q: Which inhibition of neutrophilia does the source give for `Cc1ccc(C(=O)Nc2ccccc2)cc1-c1nc(NCCN(C)C)nc2c1CNC(=O)N2c1c(F)cccc1F` [Example 137, 3-(8-(2,6-difluorophenyl)-2-{[2-(dimethylamino)ethyl]amino}-7-oxo-5,6,7,8-tetrahydropyrimido[4,5-d]pyrimidin-4-yl)-4-methyl-N-phenylbenzamide] here?
A: statistically significant inhibition

Q: Which inhibition of neutrophilia does the source give for `Cc1ccc(C(=O)Nc2nccs2)cc1-c1nc(NCCN(C)C)nc2c1CNC(=O)N2c1c(F)cccc1F` [118(c), 3-(8-(2,6-difluorophenyl)-2-{[2-(dimethylamino)ethyl]amino}-7-oxo-5,6,7,8-tetrahydropyrimido[4,5-d]pyrimidin-4-yl)-4-methyl-N-1,3-thiazol-2-ylbenzamide] here?
A: statistically significant inhibition

Q: `CSc1ccc(NC(=O)c2ccc(C)c(-c3nc(NCCN(C)C)nc4c3CNC(=O)N4c3c(F)cccc3F)c2)cc1` [Example 127, 3-(8-(2,6-difluorophenyl)-2-{[2-(dimethylamino)ethyl]amino}-7-oxo-5,6,7,8-tetrahydropyrimido[4,5-d]pyrimidin-4-yl)-4-methyl-N-[4-(methylthio)phenyl]benzamide] was tested. Which inhibition of neutrophilia did it give?
A: statistically significant inhibition

Q: For `Cc1ccc(C(=O)NC(C)C)cc1-c1nc(N2CCC(N3CCCCC3)CC2)nc2c1CNC(=O)N2c1c(F)cccc1F` [Example 57, 3-[2-(1,4′-bipiperidin-1′-yl)-8-(2,6-difluorophenyl)-7-oxo-5,6,7,8-tetrahydropyrimido[4,5-d]pyrimidin-4-yl]-4-methyl-N-(1-methylethyl)benzamide], which inhibition of neutrophilia is on record?
A: statistically nonsignificant inhibition

Q: For `CCc1ccc(C(=O)Nc2nccs2)cc1-c1nc(NCCN(C)C)nc2c1CNC(=O)N2c1c(F)cccc1F` [Example 144, 3-(8-(2,6-difluorophenyl)-2-{[2-(dimethylamino)ethyl]amino}-7-oxo-5,6,7,8-tetrahydropyrimido[4,5-d]pyrimidin-4-yl)-4-ethyl-N-1,3-thiazol-2-ylbenzamide Trilfluoroacetate], which inhibition of neutrophilia is on record?
A: statistically significant inhibition

Q: With `CN(C)CCNc1nc(-c2cccc(C(=O)Nc3ccccc3)c2)c2c(n1)N(c1c(F)cccc1F)C(=O)NC2` [Example 91, 3-(8-(2,6-difluorophenyl)-2-{[2-(dimethylamino)ethyl]amino}-7-oxo-5,6,7,8-tetrahydropyrimido[4,5-d]pyrimidin-4-yl)-N-phenylbenzamide] as the compound, how does the inhibition of neutrophilia read?
A: statistically significant inhibition

Q: With `Cc1ccc(C(=O)NC(C)C)cc1-c1nc(NCCN(C)C)nc2c1CNC(=O)N2c1c(F)cccc1F` [Example 37, 3-(8-(2,6-difluorophenyl)-2-{[2-(dimethylamino)ethyl]amino}-7-oxo-5,6,7,8-tetrahydropyrimido[4,5-d]pyrimidin-4-yl)-4-methyl-N-(1-methylethyl)benzamide] as the compound, how does the inhibition of neutrophilia read?
A: statistically nonsignificant inhibition

Q: How did the inhibition of neutrophilia turn out when `Cc1ccc(C(=O)Nc2ccc(F)cc2)cc1-c1nc(N2CCC(N3CCCCC3)CC2)nc2c1CNC(=O)N2c1c(F)cccc1F` [87(b), 3-[2-(1,4′-bipiperidin-1′-yl)-8-(2,6-difluorophenyl)-7-oxo-5,6,7,8-tetrahydropyrimido[4,5-d]pyrimidin-4-yl]-N-(4-fluorophenyl)-4-methylbenzamide] was run?
A: statistically nonsignificant inhibition

Q: With `Cc1ccc(C(=O)NC(C)C)cc1-c1nc(NC2CCN(Cc3ccccc3)CC2)nc2c1CNC(=O)N2c1c(F)cccc1F` [Example 200, 3-(8-(2,6-difluorophenyl)-7-oxo-2-{[1-(phenylmethyl)-4-piperidinyl]amino}-5,6,7,8-tetrahydropyrimido[4,5-d]pyrimidin-4-yl)-4-methyl-N-(1-methylethyl)benzamide] as the compound, how does the inhibition of neutrophilia read?
A: statistically significant inhibition

Q: Which inhibition of neutrophilia does the source give for `Cc1ccc(C(=O)Nc2nccs2)cc1-c1nc(NCCCN(C)C)nc2c1CNC(=O)N2c1c(F)cccc1F` [Example 119, 3-(8-(2,6-difluorophenyl)-2-{[3-(dimethylamino)propyl]amino}-7-oxo-5,6,7,8-tetrahydropyrimido[4,5-d]pyrimidin-4-yl)-4-methyl-N-1,3-thiazol-2-ylbenzamide] here?
A: statistically significant inhibition
